The test system of experiment [1] is Staphylococcus aureus. Briefly: Antimicrobial activity against […] Staphylococcus aureus USA300 measured after 24 hrs by CLSI protocol based microdilution method. The experiment is classed as functional.
Experiment [2] relates to Staphylococcus aureus. Briefly: In vivo antibacterial activity against methicilin-resistant Staphylococcus aureus ATCC33591 infected in BALB/c mouse skin infection model assessed as normal morphology at 10 mg/kg administered daily for 4 days by H and E staining based analysis. The experiment is classed as functional, organism-based. Particulars: time 4.0 day.
The subject of experiment [3] is Staphylococcus aureus. Briefly: In vivo antibacterial activity against methicilin-resistant Staphylococcus aureus ATCC33591 infected in BALB/c mouse skin infection model assessed as normal skin structure at 10 mg/kg administered daily for 4 days by H and E staining based analysis. The note with it: time 4.0 day. It counts as functional, organism-based.
Experiment [4] relates to Staphylococcus aureus. As to the kind of experiment: Antimicrobial activity against […] Staphylococcus aureus ATCC33591 assessed as frequency of spontaneous resistance at 8 times MIC measured after 48 hrs by. It counts as functional.
The subject of experiment [5] is Staphylococcus aureus. As to the kind of experiment: Antimicrobial activity against […] Staphylococcus aureus ATCC43300 measured after 24 hrs by CLSI protocol based microdilution method. The experiment is classed as functional.
The target in experiment [6] is T1, Enoyl-[acyl-carrier-protein] reductase [NADPH] FabI (Staphylococcus aureus) (UniProt Q6GI75).
T1 sequence (whole entry): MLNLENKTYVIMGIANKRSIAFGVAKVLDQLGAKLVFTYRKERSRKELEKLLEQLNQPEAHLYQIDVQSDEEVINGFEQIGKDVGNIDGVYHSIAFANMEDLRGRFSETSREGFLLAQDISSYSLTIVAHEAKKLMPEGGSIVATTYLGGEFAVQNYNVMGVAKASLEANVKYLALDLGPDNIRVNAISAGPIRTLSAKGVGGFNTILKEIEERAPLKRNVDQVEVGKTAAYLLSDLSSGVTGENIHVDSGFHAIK
As to the kind of experiment: Binding affinity to N-terminal his 6 tagged Staphylococcus aureus Fabi (1 to […] residues) expressed in Escherichia coli BL21 assessed as change in melting temperature at 80 uM incubated for 20 mins in presence of NADPH by differential scanning fluorescence assay.

For experiment [7], the target named is T1, Enoyl-[acyl-carrier-protein] reductase [NADPH] FabI (Staphylococcus aureus). Briefly: Inhibition of N-terminal his 6 tagged Staphylococcus aureus Fabi (1 to […] residues) expressed in Escherichia coli BL21 at 1 uM incubated for 30 mins in presence of NADPH by fluorescence based microplate reader analysis relative to control.
Experiment [8] concerns Staphylococcus aureus. As to the kind of experiment: Antimicrobial activity against […] Staphylococcus aureus NRS271 measured after 24 hrs by CLSI protocol based microdilution method. The experiment is classed as functional.
Experiment [9] deals with Staphylococcus aureus. As to the kind of experiment: In vivo antibacterial activity against methicilin-resistant Staphylococcus aureus ATCC33591 infected in BALB/c mouse skin infection model assessed as log reduction in bacterial count at 10 mg/kg administered daily for 4 days. It counts as functional. The note with it: time 4 day.
For experiment [10], the target named is T2, Enoyl-[acyl-carrier-protein] reductase [NADPH] FabI (Staphylococcus aureus, UniProt Q6GI75).
T2 sequence (Q6GI75 whole entry): T1 sequence (whole entry)
Briefly: Inhibition of N-terminal his 6 tagged Staphylococcus aureus Fabi (1 to […] residues) expressed in Escherichia coli BL21 incubated for 30 mins in presence of NADPH by fluorescence based microplate reader analysis.

In experiment [11] the test system is Staphylococcus aureus. Briefly: Antimicrobial activity against methicillin-susceptible Staphylococcus aureus ATCC25923 measured after 24 hrs by CLSI protocol based microdilution method. It counts as functional.
The test system of experiment [12] is Staphylococcus aureus. Briefly: Antimicrobial activity against […] Staphylococcus aureus ATCC33591 measured after 24 hrs by CLSI protocol based microdilution method. It counts as functional.
The subject of experiment [13] is Staphylococcus aureus. As to the kind of experiment: Antimicrobial activity against […] Staphylococcus aureus ATCC33591 assessed as frequency of spontaneous resistance at 16 times MIC measured after 48 hrs by. The experiment is classed as functional.
Experiment [14] has as its system Staphylococcus aureus. As to the kind of experiment: Antimicrobial activity against methicillin-susceptible Staphylococcus aureus ATCC29213 measured after 24 hrs by CLSI protocol based microdilution method. The experiment is classed as functional.
For experiment [15], the system named is Staphylococcus aureus. As to the kind of experiment: In vivo antibacterial activity against methicilin-resistant Staphylococcus aureus ATCC33591 infected in BALB/c mouse skin infection model assessed as reduction in skin lesions at 10 mg/kg administered daily for 4 days (reference value: 48.3 mm2). It counts as functional. The note with it: time 4 day.
The test system of experiment [16] is Staphylococcus aureus. Briefly: Antimicrobial activity against […] Staphylococcus aureus ATCC33591 assessed as frequency of spontaneous resistance at 4 times MIC measured after 48 hrs by. The experiment is classed as functional.

Values after ≈ are worked out from the molar mass of the structure shown. Active and inactive are the calls of the source. The rule behind the calls is not given here.

For `Cc1c(Br)cccc1N1C[C@@H](c2nc3ccccc3n2C)CC1=O`, the MIC in the experiment with Staphylococcus aureus [1] was determined as 0.5 µg/mL (≈ 1.3 µM); against Staphylococcus aureus [5], 0.5 µg/mL (≈ 1.3 µM); in the experiment on Staphylococcus aureus [8] it was 1 µg/mL (≈ 2.6 µM); against Staphylococcus aureus [11], 0.5 µg/mL (≈ 1.3 µM); against Staphylococcus aureus [12], 0.25 µg/mL (≈ 0.651 µM); against Staphylococcus aureus [14], 0.5 µg/mL (≈ 1.3 µM). The outcome in the experiment with Staphylococcus aureus [2] and with Staphylococcus aureus [3] was Active. Further, the Activity was <2.6 10^-10No_unit in the experiment with Staphylococcus aureus [4], <2.6 10^-10No_unit with Staphylococcus aureus [13], 16.1 mm2 in the experiment on Staphylococcus aureus [15] and 3.8 10^-10No_unit with Staphylococcus aureus [16]. For the same compound, the ΔTm in [6] came to 14.3 °C. In addition, in experiment [7], the inhibition was greater than 85%. Also, in the experiment with Staphylococcus aureus [9], the “log(activity)” value came to 6.8. Also, the IC50 in experiment [10] stood at 94 nM.
